Data as given in patent publication US20120035125A1, “FULVIC ACID IN COMBINATION WITH FLUCONAZOLE OR AMPHOTERICIN B FOR THE TREATMENT OF FUNGAL INFECTIONS” (Natracine UK Limited, priority 2009, published 2012).
In brackets after ≈: the same amount, converted by molar mass. Read-outs that look alike come from different tables or passages of the source.

Key:
Format in all cases: cell-based
Candida albicans [1] = assay: In vitro susceptibility, fluconazole and CHD-FA, preliminary experiment (5 clinical isolates); conditions: read-out: Minimum Inhibitory Concentrations of Fluconazole
Procedure: (§1) Each culture was grown on Sabouraud agar at 37° C. for 48 h to ensure purity.
Clinical Microbiology and Infection 9:1-VIII.)
a) All yeasts were cultured in ambient air at 35-37° C. on recovery medium (Sabouraud dextrose agar) for 18-24 h before testing.
b) The inoculum was prepared by picking five distinct colonies from 18 to 24 h cultures and suspending them in 5 mL of sterile distilled water.
c) The inoculum was completely suspended by vigorous shaking on a vortex mixer for 15 s. The cell density was adjusted to the density of a 0.5 McFarland standard by adding sterile distilled water and measuring absorbance in a spectrophotometer at a wavelength of 530 nm. This gave a yeast suspension of 1-5×10^6 cfu/mL. A working suspension was prepared by a further dilution of 1 in 10 further in 4×RPMI to give […] (The RPMI medium used in the plates was prepared at 4×the final strength to allow for a 75% dilution once the inoculum and diluted CHD-FA was added).
(§2) Sterile plastic, disposable, microtitration plates with 96 flat-bottom wells were used.
(§3) a) Column 1 of the microtitration tray was filled with 100 μL of sterile water containing four times the final drug concentration (512 mg/L fluconazole).
(§4) b) Columns 2-12 were filled with 50 μL of distilled water
(§5) c) 50 μL amounts were taken from wells in column 1 and diluted two-fold by transferring them to column 2 with a multichannel pipette (±2% coefficient of variation). 50 μL samples were then removed from column 2 and transferred to column 3, and so on through to column 10. The last 50 μL of diluted drug is then discarded. Thus, each well in columns 1-10 will contain 50 μL of water containing four times the final antifungal drug concentrations.
Stock solutions of CHD-FA were produced containing 4%, 2%, 1%, 0.5% and 0.25% of the native compound. 100 μL of the diluted CHD-FA was added to microtitration trays in so that row A contains a final dilution of 2% row B, 1%, row C 0.5%, row D 0.25% row E 0.125% and row F diluent only.
50 μL of the diluted Candida albicans suspension in 4×RPMI was added to all cells. This produces a well containing 200 μL final volume (made up of 50 μL diluted fluconazole, 100 μL diluted CHD-FA or diluent, 50 μL of 4×RPMI containing Candida albicans)
(§6) All plates were incubated at 37° C. in air in a darkened incubator.
(§7) Plates were read visually with the endpoint taken as the lowest concentration of drug that inhibited growth by 50% of that of the drug free control.
The pH of CHD-FA was adjusted to pH7.0 using 10M NaOH solution (the ideal pH for fluconazole activity). […] Susceptibility assays were repeated as above.

Candida albicans [2] = assay: In vitro susceptibility, fluconazole and CHD-FA, main experiment
Procedure: as §1, §2, §3, §4, §5
(§8) Stock solutions of CHD-FA were produced containing 4% and 2% (also 1% and 0.5% for Candida parapsilosis and Candida krusei). 100 μL of the diluted CHD-FA was added to microtitration trays in so that rows contain final dilutions of: • For Candida albicans and tropicalis: 1st row of pair 0.5% CHD-FA, 2nd row of pair solvent only • For Candida glabrata: 1st row of triplet 1% CHD-FA, 2nd row of triplet 0.5% CHD-FA, 3rd row of triplet solvent only • For Candida parapsilosis and Candida krusei rows included 2%, 1%, 0.5%, 0.25 and 0.125% CHD-FA and a row of solvent only.
(§9) All the above concentrations were mixed with fixed concentrations of fluconazole at 128, 32, 8, 2, 0.5 mg/L and solvent for synergy/antagonism assessment.
(§10) 50 μL of the diluted Candida spp suspension in 4×RPMI was added to all wells. This produces a well containing 200 μL final volume (made up of 50 μL diluted fluconazole, 100 μL diluted CHD-FA or diluent, 50 μL of 4×RPMI containing Candida)
as §6, §7

Candida glabrata = assay: as above
Procedure: as §1, §2, §3, §4, §5, §8, §9, §10, §6, §7

Candida tropicalis = assay: as above
Procedure: as §1, §2, §3, §4, §5, §8, §9, §10, §6, §7

Candida krusei = assay: as above
Procedure: as §2, §3, §4, §5, §8, §9, §10, §6, §7

Candida parapsilosis = assay: as above; conditions: Lodderomyces parapsilosis, read-out: Fluconazole MIC (mg/L) alone
Procedure: as §2, §3, §4, §5, §8, §9, §10, §6, §7

OC(Cn1cncn1)(Cn1cncn1)c1ccc(F)cc1F [Fluconazole, fluconazole]
MIC (Candida albicans [1]; Candida Strain 1, Solvent (no CHD-FA)): 128 µg/mL (≈ 418 µM)
MIC (Candida albicans [1]; Candida Strain 2, Solvent (no CHD-FA)): 16 µg/mL (≈ 52.2 µM)
MIC (Candida albicans [1]; Candida Strain 3, Solvent (no CHD-FA)): 16 µg/mL (≈ 52.2 µM)
MIC (Candida albicans [1]; Candida Strain 4, Solvent (no CHD-FA)): 32 µg/mL (≈ 104 µM)
MIC (Candida albicans [1]; Candida Strain 5, Solvent (no CHD-FA)): 16 µg/mL (≈ 52.2 µM)
MIC (Candida albicans [2]; C. albicans isolate 1, read-out: Fluconazole MIC (mg/L) alone): 128 mg/L
MIC (Candida albicans [2]; C. albicans isolate 2, read-out: Fluconazole MIC (mg/L) alone): 8 mg/L
MIC (Candida albicans [2]; C. albicans isolate 3, read-out: Fluconazole MIC (mg/L) alone): 16 mg/L
MIC (Candida albicans [2]; C. albicans isolate 4, read-out: Fluconazole MIC (mg/L) alone): 4 mg/L
MIC (Candida albicans [2]; C. albicans isolate 5, read-out: Fluconazole MIC (mg/L) alone): 128 mg/L
MIC (Candida albicans [2]; C. albicans isolate 6, read-out: Fluconazole MIC (mg/L) alone): > 128 mg/L
MIC (Candida albicans [2]; C. albicans isolate 7, read-out: Fluconazole MIC (mg/L) alone): 128 mg/L
MIC (Candida albicans [2]; C. albicans isolate 8, read-out: Fluconazole MIC (mg/L) alone): 128 mg/L
MIC (Candida albicans [2]; C. albicans isolate 9, read-out: Fluconazole MIC (mg/L) alone): 64 mg/L
MIC (Candida albicans [2]; C. albicans isolate 10, read-out: Fluconazole MIC (mg/L) alone): 128 mg/L
MIC (Candida albicans [2]; C. albicans isolate 11, read-out: Fluconazole MIC (mg/L) alone): 0.5 mg/L
MIC (Candida albicans [2]; C. albicans isolate 12, read-out: Fluconazole MIC (mg/L) alone): 64 mg/L
MIC (Candida albicans [2]; C. albicans isolate 13, read-out: Fluconazole MIC (mg/L) alone): 0.5 mg/L
MIC (Candida albicans [2]; C. albicans isolate 14, read-out: Fluconazole MIC (mg/L) alone): 32 mg/L
MIC (Candida albicans [2]; C. albicans isolate 15, read-out: Fluconazole MIC (mg/L) alone): 2 mg/L
MIC (Candida albicans [2]; C. albicans isolate 16, read-out: Fluconazole MIC (mg/L) alone): 64 mg/L
MIC (Candida albicans [2]; C. albicans isolate 17, read-out: Fluconazole MIC (mg/L) alone): > 128 mg/L
MIC (Candida albicans [2]; C. albicans isolate 18, read-out: Fluconazole MIC (mg/L) alone): > 128 mg/L
MIC (Candida albicans [2]; C. albicans isolate 19, read-out: Fluconazole MIC (mg/L) alone): 0.5 mg/L
MIC (Candida albicans [2]; C. albicans isolate 20, read-out: Fluconazole MIC (mg/L) alone): > 128 mg/L
MIC (Candida albicans [2]; C. albicans isolate 21, read-out: Fluconazole MIC (mg/L) alone): 4 mg/L
MIC (Candida albicans [2]; C. albicans isolate 22, read-out: Fluconazole MIC (mg/L) alone): 2 mg/L
MIC (Candida albicans [2]; C. albicans isolate 23, read-out: Fluconazole MIC (mg/L) alone): 1 mg/L
MIC (Candida albicans [2]; C. albicans isolate 24, read-out: Fluconazole MIC (mg/L) alone): 1 mg/L
MIC (Candida albicans [2]; C. albicans isolate 25, read-out: Fluconazole MIC (mg/L) alone): > 128 mg/L
Fluconazole MIC (mg/L) alone (Candida glabrata; C. glabrata isolate 1): >128 mg/L
Fluconazole MIC (mg/L) alone (Candida glabrata; C. glabrata isolate 2): >128 mg/L
Fluconazole MIC (mg/L) alone (Candida glabrata; C. glabrata isolate 3): >128 mg/L
Fluconazole MIC (mg/L) alone (Candida glabrata; C. glabrata isolate 5): >128 mg/L
Fluconazole MIC (mg/L) alone (Candida glabrata; C. glabrata isolate 6): >128 mg/L
Fluconazole MIC (mg/L) alone (Candida glabrata; C. glabrata isolate 7): >128 mg/L
Fluconazole MIC (mg/L) alone (Candida glabrata; C. glabrata isolate 8): >128 mg/L
Fluconazole MIC (mg/L) alone (Candida glabrata; C. glabrata isolate 9): >128 mg/L
Fluconazole MIC (mg/L) alone (Candida glabrata; C. glabrata isolate 10): >128 mg/L
Fluconazole MIC (mg/L) alone (Candida glabrata; C. glabrata isolate 11): >128 mg/L
MIC (Candida glabrata; Nakaseomyces glabratus, C. glabrata isolate 4, read-out: Fluconazole MIC (mg/L) alone): > 128 mg/L
MIC (Candida tropicalis; C. tropicalis isolate 1, read-out: Fluconazole MIC (mg/L) alone): 16 mg/L
MIC (Candida tropicalis; C. tropicalis isolate 2, read-out: Fluconazole MIC (mg/L) alone): > 64 mg/L
MIC (Candida tropicalis; C. tropicalis isolate 3, read-out: Fluconazole MIC (mg/L) alone): 16 mg/L
MIC (Candida tropicalis; C. tropicalis isolate 4, read-out: Fluconazole MIC (mg/L) alone): 16 mg/L
Fluconazole MIC (mg/L) alone (Candida krusei; C. krusei isolate 1): 32 mg/L
Fluconazole MIC (mg/L) alone (Candida krusei; C. krusei isolate 2): 32 mg/L
Fluconazole MIC (mg/L) alone (Candida krusei; C. krusei isolate 4): 32 mg/L
Fluconazole MIC (mg/L) alone (Candida krusei; C. krusei isolate 5): 32 mg/L
MIC (Candida krusei; Pichia kudriavzevii, C. krusei isolate 3, read-out: Fluconazole MIC (mg/L) alone): 32 mg/L
MIC (Candida parapsilosis; C. parapsilosis isolate 1): 8 mg/L
MIC (Candida parapsilosis; C. parapsilosis isolate 2): 2 mg/L
MIC (Candida parapsilosis; C. parapsilosis isolate 3): 8 mg/L
MIC (Candida parapsilosis; C. parapsilosis isolate 4): 8 mg/L
MIC (Candida parapsilosis; C. parapsilosis isolate 5): 8 mg/L
